Experimental data reported in patent US10508102B2, “Inhibitors of cellular necrosis and related methods” (President and Fellows of Harvard College, priority 2014, dated 2019).
Read-outs that look alike come from different tables or passages of the source.

What was measured:
[1] = system: human FADD-deficient Jurkat T cells; assay: Cellular necrosis inhibition, FADD-deficient Jurkat T cells challenged with TNF-alpha (CellTiter-Glo viability); details: 30 hours, ATP-based cell viability
Description: FADD−/− Jurkat cells (Juo P, et al. Cell Growth Differ. 1999, 10(12):797-804) were seeded at the density of 5*10^5 cells/mL into 96 well white plates (Costar) at 100 μL/well. […] Cells were treated in duplicate with various concentrations of test compounds in the presence or absence of 10 ng/ml human TNF-alpha. (Cell Sciences).
After 30 hours, viability of the cells was determined using luminescent ATP-based cell viability assay (CellTiter-Glo, Promega). Percentage of protection by the compound was calculated as a ratio of the cps (counts per second) value in the well treated with the test compound and TNF-alpha. to the cps value in the well treated with the compound alone. Assays were repeated twice, and the average EC50 value over both assays was calculated.
Exemplary compounds of structure (II) were screened for anti-necrotic activity according to the general procedures of Example 7.

[2] = target: GST-human RIP1 kinase domain (amino acids 1-327) (Homo sapiens (Human), UniProt Q13546); assay: RIP1 kinase ADP-Glo assay
Description: RIP1 kinase assays were performed using ADP-Glo assay (Promega) according to manufacturer's protocol. […] Reactions were performed for 4 hr at room temperature and stopped by incubation with ADP-Glo reagent for 40 min at room temperature. Luminescent signal was developed by incubation with Kinase Detection reagent for 30 min at room temperature. Signal was determined using Victor3V platereader (Perkin Elmer). Non-linear regression to calculate EC50 values was performed using GraphPad Prism software package.

[3] = 10 ng/ml human TNF-alpha, read-out: EC50 (nM) TNFα
[4] = 10 ng/ml human TNF-alpha plus Smac mimetic (10 nM SM-164), read-out: EC50 (nM) TNFα + Smac

Chain of GST-human RIP1 kinase domain (amino acids 1-327) (Q13546 1-327): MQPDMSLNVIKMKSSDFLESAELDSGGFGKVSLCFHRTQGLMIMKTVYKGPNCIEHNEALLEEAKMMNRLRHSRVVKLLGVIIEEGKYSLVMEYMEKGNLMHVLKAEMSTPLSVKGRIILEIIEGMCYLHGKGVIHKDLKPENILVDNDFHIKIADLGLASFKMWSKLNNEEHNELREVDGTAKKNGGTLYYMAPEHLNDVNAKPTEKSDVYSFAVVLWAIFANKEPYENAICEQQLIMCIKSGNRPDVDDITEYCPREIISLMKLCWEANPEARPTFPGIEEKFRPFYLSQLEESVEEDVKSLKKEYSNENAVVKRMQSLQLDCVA

EC50 [2] | Structure (SMILES) | EC50 [1, 3] | EC50 [1, 4]
– | CN1C(=O)N[C@H](Cc2c[nH]c3c(Cl)c(Cl)ccc23)C1=O [B, reference compound] | > 100000 nM | –
0.0937 µM | CN1C(=O)N[C@H](Cc2c[nH]c3c(Cl)c(F)ccc23)C1=O [Compound (Ia), (R)-5-((7-chloro-6-fluoro-1H-indol-3-yl)methyl)-3-methylimidazolidine-2,4-dione] | – | 86.6 nM
– | CN1C(=O)N[C@H](Cc2c[nH]c3c(Cl)cccc23)C1=O [Compound A, reference compound] | 90.5 nM | 324 nM
– | O=C1NC(Cc2c[nH]c3ccccc23)C(=O)N1Cc1ccc(Cl)cc1 (centres unmarked) [Compound C1, reference compound] | 343 nM | –
– | CN1C(=O)N[C@H](Cc2c[nH]c3c(Cl)ccc(F)c23)C1=O [Compound E, reference compound] | 2330 nM | 8330 nM
– | CN1C(=O)N[C@H](Cc2c[nH]c3c(Cl)cc(F)cc23)C1=O [Compound F, reference compound] | 10500 nM | > 100000 nM
– | O=C1NC(Cc2c[nH]c3c(Cl)cccc23)C(=O)N1Cc1ccccc1F (centres unmarked) [II-1, 5-((7-chloro-1H-indol-3-yl)methyl)-3-(2-fluorobenzyl)imidazolidine-2,4-dione] | 159 nM | 11000 nM
< 0.1 µM | O=C1NC(Cc2c[nH]c3c(Cl)cccc23)C(=O)N1Cc1cccc(F)c1 (centres unmarked) [II-2, 5-((7-chloro-1H-indol-3-yl)methyl)-3-(3-fluorobenzyl)imidazolidine-2,4-dione] | 41 nM | 895 nM
< 0.1 µM | O=C1NC(Cc2c[nH]c3c(Cl)cccc23)C(=O)N1Cc1ccc(F)c(F)c1 (centres unmarked) [II-3, 5-((7-chloro-1H-indol-3-yl)methyl)-3-(3,4-difluorobenzyl)imidazolidine-2,4-dione] | 89 nM | 426 nM
– | O=C1NC(Cc2c[nH]c3c(Cl)cccc23)C(=O)N1Cc1ccc(F)cc1 (centres unmarked) [II-4, 5-((7-chloro-1H-indol-3-yl)methyl)-3-(4-fluorobenzyl)imidazolidine-2,4-dione] | 220 nM | 867 nM
– | O=C1NC(Cc2c[nH]c3c(Cl)c(F)ccc23)C(=O)N1Cc1ccccc1F (centres unmarked) [II-5, 5-((7-chloro-6-fluoro-1H-indol-3-yl)methyl)-3-(2-fluorobenzyl)imidazolidine-2,4-dione] | 235 nM | 892 nM
– | O=C1NC(Cc2c[nH]c3c(Cl)c(F)ccc23)C(=O)N1Cc1cccc(F)c1F (centres unmarked) [II-6, 5-((7-chloro-6-fluoro-1H-indol-3-yl)methyl)-3-(2,3-difluorobenzyl)imidazolidine-2,4-dione] | 50 nM | 822 nM
– | O=C1NC(Cc2c[nH]c3c(Cl)c(F)ccc23)C(=O)N1Cc1ccc(F)c(F)c1 (centres unmarked) [II-7, 5-((7-chloro-6-fluoro-1H-indol-3-yl)methyl)-3-(3,4-difluorobenzyl)imidazolidine-2,4-dione] | 121 nM | 722 nM
